Data: patent US20020193404A1, “Use of bicyclic heterocycles for the treatment and prevention of arterial thrombotic disease” (priority 2001, published 2002)

Tests used:
[1] = system: human citrated plasma; assay: aPTT (activated partial thromboplastin time) prolongation; conditions: concentration at which the aPTT time was double that of the control, 37° C.
Procedure: The inhibiting effect of the two substances on blood clotting was measured by determining the prolongation of aPTT (activated partial thromboplastin time) as follows:
Plasma, from citrated human blood
PTT reagent, Boehringer Mannheim (524298)
Calcium solution (0.025 mol/L), Behring Werke, Marburg (ORH 056/57)
Diethyl barbiturate acetate buffer, Behring Werke, Marburg (ORWH 60/61)
The aPTT was determined using a Biomatic—B 10 coagulometer made by Messrs Desaga (Wiesloch). The test substance was placed in the test tubes prescribed by the manufacturer with 0.1 ml of human citrated plasma and 0.1 ml of PTT reagent. The preparations were incubated for three minutes at 37° C. The clotting reaction was started by the addition of 0.1 ml of calcium solution. The time taken for the plasma to clot was measured by the apparatus as the calcium solution was added. Analogous test preparations to which 0.1 ml of diethyl barbiturate acetate buffer had been added were used as controls. According to the definition of EC200, the substance concentration at which the aPTT time was double that of the control was determined using a dosage-activity curve.

[2] = target: T1, human fibrinogen receptor (glycoprotein IIb/IIIa) (Homo sapiens, UniProt P05106+P08514); assay: Inhibition of binding of 3H-BIBU 52 to human thrombocytes; conditions: 3H-BIBU 52 5 nM, human thrombocytes in plasma, ambient temperature, 20 minutes
T1 construct: endogenous in cells; host or cells: human thrombocytes in platelet-rich plasma from donor blood
T1 sequence (P08514 32-887 limits assumed): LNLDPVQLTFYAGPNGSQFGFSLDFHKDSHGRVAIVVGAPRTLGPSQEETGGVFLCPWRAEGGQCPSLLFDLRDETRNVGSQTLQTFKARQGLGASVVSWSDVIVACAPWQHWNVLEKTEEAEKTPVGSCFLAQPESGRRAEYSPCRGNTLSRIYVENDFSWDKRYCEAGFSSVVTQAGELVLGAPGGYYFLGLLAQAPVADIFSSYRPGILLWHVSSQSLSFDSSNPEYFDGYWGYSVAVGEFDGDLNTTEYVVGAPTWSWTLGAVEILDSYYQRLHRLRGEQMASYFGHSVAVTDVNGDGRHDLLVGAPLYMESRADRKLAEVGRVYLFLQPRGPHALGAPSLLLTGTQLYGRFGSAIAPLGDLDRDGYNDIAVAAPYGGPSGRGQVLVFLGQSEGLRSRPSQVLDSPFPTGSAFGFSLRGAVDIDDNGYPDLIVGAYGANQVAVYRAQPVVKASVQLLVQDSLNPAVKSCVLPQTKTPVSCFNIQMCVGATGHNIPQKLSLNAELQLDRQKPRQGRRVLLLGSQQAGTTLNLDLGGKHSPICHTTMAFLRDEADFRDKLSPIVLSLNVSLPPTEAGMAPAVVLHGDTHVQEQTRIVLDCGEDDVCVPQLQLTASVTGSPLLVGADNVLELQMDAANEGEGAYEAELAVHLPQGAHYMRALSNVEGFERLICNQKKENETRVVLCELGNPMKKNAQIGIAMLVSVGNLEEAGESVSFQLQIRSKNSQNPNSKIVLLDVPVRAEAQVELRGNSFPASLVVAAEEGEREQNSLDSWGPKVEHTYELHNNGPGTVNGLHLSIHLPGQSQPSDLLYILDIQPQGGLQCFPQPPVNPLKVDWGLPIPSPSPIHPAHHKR
T1 sequence (P08514 891-1039 partner limits assumed): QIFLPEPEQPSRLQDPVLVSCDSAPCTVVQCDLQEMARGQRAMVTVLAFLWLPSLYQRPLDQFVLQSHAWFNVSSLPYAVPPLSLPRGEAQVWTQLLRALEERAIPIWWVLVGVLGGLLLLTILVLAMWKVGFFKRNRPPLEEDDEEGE
T1 sequence (P05106 27-788): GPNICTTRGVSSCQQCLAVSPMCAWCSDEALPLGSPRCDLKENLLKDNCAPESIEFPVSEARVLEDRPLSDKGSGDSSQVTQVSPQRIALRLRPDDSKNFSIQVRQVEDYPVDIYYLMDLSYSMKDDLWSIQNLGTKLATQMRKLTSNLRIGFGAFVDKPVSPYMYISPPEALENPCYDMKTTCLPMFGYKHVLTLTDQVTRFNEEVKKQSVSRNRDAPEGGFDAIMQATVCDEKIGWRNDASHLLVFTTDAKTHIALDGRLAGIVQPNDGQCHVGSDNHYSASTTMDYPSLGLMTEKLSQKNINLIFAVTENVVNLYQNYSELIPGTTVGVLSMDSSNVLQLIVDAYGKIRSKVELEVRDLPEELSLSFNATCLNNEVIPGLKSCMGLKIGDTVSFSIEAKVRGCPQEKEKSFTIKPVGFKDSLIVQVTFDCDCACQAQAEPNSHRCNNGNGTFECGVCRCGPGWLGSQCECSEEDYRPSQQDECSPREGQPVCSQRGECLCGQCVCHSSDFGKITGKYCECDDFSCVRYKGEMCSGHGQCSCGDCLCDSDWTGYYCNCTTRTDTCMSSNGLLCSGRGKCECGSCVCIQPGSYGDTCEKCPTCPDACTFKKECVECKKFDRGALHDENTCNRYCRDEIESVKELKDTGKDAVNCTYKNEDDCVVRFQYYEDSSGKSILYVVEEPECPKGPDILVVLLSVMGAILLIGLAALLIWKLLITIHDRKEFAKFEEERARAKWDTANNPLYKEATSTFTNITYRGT
Procedure: The inhibiting effect on the human fibrinogen receptor (glycoprotein IIb/IIIa) was investigated as follows:
Inhibition of Binding of ^3H-BIBU 52 to Human Thrombocytes:
A suspension of human thrombocytes was incubated with ^3H-BIBU 52 [=(3S,5S)-5-[(4′-amidino-4-biphenylyl)oxymethyl]-3-[(carboxy)methyl]-2-pyrrolidinone[3-^3H-4-biphenylyl]], which replaces the ligand ^125I-fibrinogen known from the literature (cf. DE-A-4 214 245), and various concentrations of the substance being tested. The free and bound ligands were separated by centrifugation and quantitatively determined by scintillation counting. The inhibition of the ^3H-BIBU 52 binding by the test substance was determined from the measurements obtained. To do this, donor blood was taken from an anticubital vein and anticoagulated with trisodium citrate (final concentration: 13 mM). The blood was centrifuged for ten minutes at 170× g and the supernatant platelet-rich plasma (PRP) was removed. The remaining blood was sharply centrifuged once more to obtain plasma. The PRP was diluted 1:10 with autologous plasma. […] 100 μl thereof were assayed in order to quantify the free ligand. […] The residual plasma still remaining in the pellet was determined from the ^14C content while the bound ligand was determined from the ^3H measurement. […]

SMILES | aPTT (EC200) [1] [µmol/L] | IC50 [2] [nM]
Cn1c(COc2ccc(C(=N)N)cc2)nc2cc(N(CC(=O)O)S(=O)(=O)c3cccc4cccnc34)ccc21 [A, 1-methyl-2-[(4-amidinophenyl)-oxymethyl]-5-[N-(hydroxycarbonylmethyl)-quinoline-8-sulphonylamino]-benzimidazole] | 0.013 | 6
Cn1c(CNc2ccc(C(=N)N)cc2)nc2cc(N(CC(=O)O)S(=O)(=O)c3cccc4cccnc34)ccc21 [B, 1-methyl-2-[N-(4-amidinophenyl)-aminomethyl]-5-[N-(hydroxycarbonylmethyl)-quinoline-8-sulphonylamino]-benzimidazole] | 0.026 | 49
